Experiment [1] addresses T1, Rat Kidney Medullary V2 Receptors (Rattus norvegicus, UniProt Q00788).
T1 construct: Medullary tissues from rat kidneys are dissected out; from tissue; host or cells: rat kidney medulla membranes
Kind of experiment: Binding Assay to Rat Kidney Medullary V2 Receptors. The note with it: for IC50: Rat Kidney Medullary V2 Receptors (no asterisk). As for the experimental part:
Binding Assay to Rat Kidney Medullary V2 Receptors
Medullary tissues from rat kidneys are dissected out, cut into small pieces and let soak in a […] sodium chloride solution containing 1.0 mM EDTA with many changes of the liquid phase, until the solution is clear of blood. The tissue is homogenized in a 0.25M sucrose solution containing 1.0 mM EDTA and 0.1 mM PMSF using a Potter-Elvehjem homogenizer with a teflon pestle. The homogenate is filtered through several layers (4 layers) of cheese cloth. The filtrate is rehomogenized using a dounce homogenizer, with a tight fitting pestle. The final homogenate is contrifuged at 1500×g for 15 min. The nuclear pellet is discarded and the supernatant fluid recentrifuged at 40,000×g for 30 min. The resulting pellet formed contains a dark inner part with the exterior, slightly pink. The pink outer part is suspended in a small amount of 50.0 mM Tris.HCl buffer, pH 7.4. The protein content is determined by the Lowry's method (Lowry et al, J. Biol. Chem., 1953). The membrane suspension is stored at -70° C., in 50.0 mM Tris.HCl, containing 0.2% inactivated BSA and 0.1 mM PMSF in aliquots of 1.0 ml containing 10.0 mg protein per ml of suspension until use in subsequent binding experiments.
For binding experiments, the following is added in μl volume to wells of a 96 well format of a microtiter plate: 100.0 μl of 100.0 mM Tris.HCl buffer containing 0.2% heat inactivated BSA, 10.0 mM MgCl2 and a mixture of protease inhibitors: leupeptin, 1.0 mg %; aprotinin, 1.0 mg %; 1,10-phenanthroline, 2.0 mg %; trypsin inhibitor, 10.0 mg % and 0.1 mM PMSF, 20.0 μl of [^3 H]Arginine^8, vasopressin (S.A. 75.0 Ci/mmole) at 0.8 nM and the reaction initiated by the addition of 80.0 μl of tissue membranes (200.0 μg tissue protein). The plates are left undisturbed on the bench top for 120 min. to reach equilibrium. Non-specific binding is assessed in the presence of 1.0 μM of unlabeled ligand, added in 20 μl volume. For test compounds, these are solubilized in 50% dimethylsulfoxide (DMSO) and added in 20.0 μl volume to a final incubation volume of 200 μl. Upon completion of binding, the content of each well is filtered off, using a Brandel® cell Harvester (Gaithersburg, Md.). The radioactivity trapped on the filter disk by the ligand-receptor complex is assessed by liquid scintillation counting in a Packard LS Counter, with an efficiency of 65% for tritium. The data are analyzed for IC50 values by the LUNDON-2 program for competition (LUNDON SOFTWARE, Ohio).

The test system of a further experiment is Vasopressin V2. The experiment in a line: Vasopressin V2 Antagonist Activity in Conscious Hydrated Rats. To be noted: 10 mg/kg orally, N = 2, AVP 0.4 μg/kg intraperitoneally; for Osmolality (mOsm/kg): urine. In kind it is in vivo, rat. The protocol:
Vasopressin V2 Antagonist Activity in Conscious Hyrdated Rats
Conscious hydrated rats are treated with compounds under study from 0.1 to 100 mg/kg orally or vehicle. Two to four rats are used for each compound. One hour later, arginine vasopressin (AVP, antidiuretic hormone, ADH) dissolved in peanut oil is administered at 0.4 μg/kg intraperitoneally. Two rats in each test would not receive arginine vasopressin but only the vehicle (peanut oil) to serve as water-loading control. Twenty minutes later each rat is given 30 mL/kg of deionized water orally by gavage and is placed individually in a metabolic cage equipped with a funnel and a graduated glass cylinder to collect urine for four hours. Urine volume is measured and osmolality analyzed by use of a Fiske One-Ten osmometer (Fiske Assoc., Norwood, Mass. U.S.A.). Urinary sodium, potassium, and chloride are analyzed by use of ion-specific electrodes in a Beckman E3(Electrolyte 3) Analyzer.
In the following results, […] and decreased osmolality relative to AVP-control indicates activity.

A further experiment deals with T2, oxytocin receptors (Rattus norvegicus, UniProt P70536).
T2 construct: The uteri are dissected out, cleaned of fat and connective tissues; from tissue; host or cells: uterus of DES-treated female Sprague-Dawley rats
T2 sequence (P70536 1-388): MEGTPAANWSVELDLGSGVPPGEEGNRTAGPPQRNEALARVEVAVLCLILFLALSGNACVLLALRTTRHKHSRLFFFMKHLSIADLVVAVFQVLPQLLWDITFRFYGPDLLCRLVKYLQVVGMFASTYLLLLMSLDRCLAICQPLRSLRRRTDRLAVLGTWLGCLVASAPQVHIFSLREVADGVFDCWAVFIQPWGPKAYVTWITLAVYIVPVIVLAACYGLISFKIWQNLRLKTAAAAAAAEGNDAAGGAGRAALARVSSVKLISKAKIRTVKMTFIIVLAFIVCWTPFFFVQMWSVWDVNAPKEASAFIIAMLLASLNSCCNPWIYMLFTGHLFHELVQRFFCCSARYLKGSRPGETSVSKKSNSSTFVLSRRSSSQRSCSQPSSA
Kind of experiment: Oxytocin Receptor Binding. Further details: species or system Sprague-Dawley rat. The protocol:
Oxytocin Receptor Binding
Female Sprague-Dawley rats weighing approximately 200-250 g are injected intramuscularly (i.m.) with 0.3 mg/kg of body weight of diethylstilbestrol (DES). The rats are sacrificed 18 hours later under pentobarbital anesthesia. The uteri are dissected out, cleaned of fat and connective tissues and rinsed in 50 ml of normal saline. The tissue pooled from six rats is homogenized in 50 ml of […] TriS.HCl, containing 0.5 mM dithiothreitol and 1.0 mM EDTA, adjusted to pH 7.4, using a polytron at setting 6 with three passes of 10 sec each. The homogenate is passed through two (2) layers of cheesecloth and the filtrate contrifuged at 1000×g for 10 min. The clear supernatant is removed and recentrifuged at 165,000×g for 30 min. The resulting pellet containing the oxytocin receptors is resuspended in 50.0 mM Tris.HCl containing 5.0 mM MgCl2 at pH 7.4, to give a protein concentration of 2.5 mg/ml of tissue suspension. This preparation is used in subsequent binding assays with [^3 H]Oxytocin.
Binding of 3,5-[^3 H]Oxytocin ([^3 H]OT) to its receptors is done in microtiter plates using [^3 H]OT, at various concentrations, in an assay buffer of 50.0 mM Tris.HCl, pH 7.4 and containing 5.0 mM MgCl2, and a mixture of protease inhibitors: BSA, 0.1 mg; aprotinin, 1.0 mg; 1,10-phenanthroline, 2.0 mg; […], 10.0 mg; and PMSF, 0.3 mg per 100 ml of buffer solution. Non-specific binding is determined in the presence of 1.0 uM unlabeled OT. The binding reaction is terminated after 60 min., at 22° C., by rapid filtration through glass fiber filters using a Brandel® cell harvester (Biomedical Research and Development Laboratories, Inc., Gaithersburg, Md.). Competition experiments are conducted at equilibrium using 1.0 nM [^3 H]OT and varying the concentration of the displacing agents. The concentrations of agent displacing 50% of [^3 H]OT at its sites (IC50) are calculated by a computer assisted LUNDON-2 program (LUNDON SOFTWARE INC., Ohio, U.S.A.).

The target of experiment [2] is T3, V1 Receptor Subtype in Human Platelet (Homo sapiens, UniProt P37288).
T3 construct: from tissue; host or cells: human platelets (platelet rich plasma from Hudson Valley Blood Services)
T3 sequence (P37288 whole entry): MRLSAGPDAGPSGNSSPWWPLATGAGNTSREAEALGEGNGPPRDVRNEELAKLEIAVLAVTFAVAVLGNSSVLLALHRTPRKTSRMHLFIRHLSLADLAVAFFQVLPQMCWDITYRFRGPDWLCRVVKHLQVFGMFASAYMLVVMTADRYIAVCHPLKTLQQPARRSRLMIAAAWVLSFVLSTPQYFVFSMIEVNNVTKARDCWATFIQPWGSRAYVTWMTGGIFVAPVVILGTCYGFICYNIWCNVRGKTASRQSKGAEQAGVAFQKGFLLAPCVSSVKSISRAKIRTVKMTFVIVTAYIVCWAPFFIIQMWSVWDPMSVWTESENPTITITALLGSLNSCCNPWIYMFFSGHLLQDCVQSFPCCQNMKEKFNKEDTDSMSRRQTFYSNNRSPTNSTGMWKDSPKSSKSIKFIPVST
The experiment in a line: Binding to Vasopressin V1 Receptor Subtype in Human Platelet Membranes. As for the experimental part: Radioligand Binding Experiments with Human Platelet Membranes
Platelet Source: Hudson Valley Blood Services, Westchester Medical Center, Valhalla, N.Y.
Frozen platelet rich plasma (PRP), received from the Hudson Valley Blood Services are thawed to room temperature. The tubes containing the PRP are centrifuged at 16,000×g for 10 min. at 4° C. and the supernatant fluid discarded. The platelets resuspended in an equal volume of 50.0 mM Tris.HCl, pH 7.5 containing 120 mM NaCl and 20.0 mM EDTA. The suspension is recentrifuged at 16,000×g for 10 min. This washing step is repeated one more time. The wash is discarded and the lysed pellets homogenized in low ionic strength buffer of Tris.HCl, 5.0 mM, pH 7.5 containing 5.0 mM EDTA. The homogenate is centrifuged at 39,000×g for 10 min. The resulting pellet is resuspended in Tris.HCl buffer, 70.0 mM, pH 7.5 and recentrifuged at 39,000×g for 10 min. The final pellet is resuspended in 50.0 mM Tris.HCl buffer pH 7.4 containing 120 mM NaCl and 5.0 mM HCl to give 1.0-2.0 mg protein per ml of suspension.
Binding to Vasopressin V1 Receptor Subtype in Human Platelet Membranes:
In wells of a 96 well format microtiter plate, add 100 μl of 50.0 mM Tris.HCl buffer containing 0.2% BSA and a mixture of protease inhibitors (aprotinin, leupeptin etc.). Then add 20 μl of [^3 H]Ligand: (Manning or Arg^8 Vasopressin), to give final concentrations ranging from 0.01 to 10.0 nM. Initiate the binding by adding 80.0 μl of platelet suspension (approx. 100 μg protein). Mix all reagents by pipetting the mixture up and down a few times. Non-specific binding is measured in the presence of 1.0 μM of unlabeled ligand (Manning or Arg^8 Vasopressin). Let the mixture stand undisturbed at room temperature for ninety (90) min. Upon this time, rapidly filter off the incubate under vacuum suction over GF/B filters, using a Brandel® Harvester. Determine the radioactivity caught on the filter disks by the addition of liquid scintillant and counting in a liquid scintillator

T1 sequence (Q00788 whole entry): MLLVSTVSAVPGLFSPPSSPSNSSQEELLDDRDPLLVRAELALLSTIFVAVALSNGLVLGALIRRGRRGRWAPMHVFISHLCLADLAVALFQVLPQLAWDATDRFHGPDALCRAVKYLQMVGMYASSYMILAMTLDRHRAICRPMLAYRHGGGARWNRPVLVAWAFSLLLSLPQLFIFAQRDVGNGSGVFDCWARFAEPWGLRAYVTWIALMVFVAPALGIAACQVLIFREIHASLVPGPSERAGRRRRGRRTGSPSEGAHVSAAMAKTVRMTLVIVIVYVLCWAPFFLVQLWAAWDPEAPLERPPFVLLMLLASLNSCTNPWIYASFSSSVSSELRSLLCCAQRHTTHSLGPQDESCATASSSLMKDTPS

In general, IC50 refers to the concentration at which inhibition is half-maximal. For the compound `O=C(Nc1ccc(C(=O)N2CCc3cn[nH]c3-c3sccc32)c(Cl)c1)c1cc(Cl)ccc1F` [Example 4, N-[4-[(4,5-Dihydropyrazolo[3,4-d]thieno[3,2-b]azepin-6(1H)-yl)carbonyl]-3-chlorophenyl]-5-chloro-2-fluorobenzamide], the IC50 in experiment [1] came out at 0.036 µM.

`O=C(Nc1ccc(C(=O)N2CCc3c[nH]nc3-c3ncccc32)cn1)c1ccccc1-c1ccccc1` [Example 368, N-[5-[(4,5-Dihydro[3,4-d]pyrido[3,2-b]azepin-6(1H)-yl)carbonyl]-2-pyridinyl][1,1'-biphenyl]-2-carboxamide]: in the experiment on Vasopressin V2, the “Urine Vol. (ml/4 hrs.)” value is on record as 20.3 ml/4 hrs and the “Osmolality (mOsm/kg)” value is recorded as 371 mOsm/kg.

Broadly, the inhibition is the share of the control response that was lost under treatment. Low readings indicate a weak effect, high ones a strong effect. `Cc1ccccc1C(=O)Nc1ccc(C(=O)N2CCc3c[nH]nc3-c3sccc32)cc1` [Example 7, N-[4-[[4,5-Dihydropyrazolo[3,4-d]thieno[3,2-b]azepin-6(2H)-yl]carbonyl]phenyl]-2-methylbenzamide]: in the experiment on Vasopressin V2, the “Urine Vol. (ml/4 hrs.)” value worked out at 20.8 ml/4 hrs and the “Osmolality (mOsm/kg)” value stood at 322 mOsm/kg. Moreover, the inhibition at 10 µM at oxytocin receptors is 65%. With `Cn1cc2c(n1)-c1sccc1N(C(=O)c1ccc(NC(=O)c3ccc(Cl)cc3Cl)cc1)CC2` [Example 5, N-[4-[[4,5-Dihydro-2-methylpyrazolo[3,4-d]thieno[3,2-b]-azepin-6-(2H)-yl]carbonyl]phenyl]2,4-dichlorobenzamide], at oxytocin receptors, 10 µM produced 47% inhibition.

`Cc1ccccc1C(=O)Nc1ccc(C(=O)N2CCc3cn(C)nc3-c3sccc32)cc1` [Example 361] registered an IC50 on oxytocin receptors (1.0 nM [^3 H]OT, 60 min., 22° C.) of 6.4 µM. At oxytocin receptors, this compound had an inhibition at 10 µM of 57%. For the compound `Cc1ccc(F)cc1C(=O)Nc1ccc(C(=O)N2CCc3c[nH]nc3-c3sccc32)c(Cl)c1` [Example 3, N-[4-[(4,5-Dihydropyrazolo[3,4]thieno[3,2-b]azepin-6-(1H)-yl)carbonyl]-3-chlorophenyl]-5-fluoro-2-methylbenzamide], in experiment [1], the IC50 came out at 0.0061 µM. With `O=C(Nc1ccc(C(=O)N2CCc3cn[nH]c3-c3ncccc32)c(Cl)c1)c1ccccc1-c1ccccc1` [Example 366, N-[4-[(4,5-Dihydropyrazolo[3,4-d]pyrido[3,2-b]azepin-6(1H)-yl)carbonyl]-3-chlorophenyl][1,1'-biphenyl]-2-carboxamide], in the experiment on Vasopressin V2, the “Urine Vol. (ml/4 hrs.)” value is 17.8 ml/4 hrs and the “Osmolality (mOsm/kg)” value amounted to 431 mOsm/kg. Take `Cc1ccc(F)cc1C(=O)Nc1ccc(C(=O)N2CCc3cn[nH]c3-c3cccnc32)cc1` [Example 16, N-[4-[(4,5-Dihydropyrazolo[3,4-d]pyrido[2,3-b]azepin-6(1H)-yl)carbonyl]phenyl]-5-fluoro-2-methylbenzamide]: the IC50 in experiment [2] (*Binding to V1 Receptor Subtype in Human Platelet) is 3.3 µM; in experiment [1], 0.55 µM. In the case of `O=C(c1ccc(-c2ccccc2)cc1)N1CCc2cn[nH]c2-c2ncccc21` [Example 364, 6-([1,1'-Biphenyl]-4-ylcarbonyl)-1,4,5,6-tetrahydropyrazolo[3,4-d]pyrido[3,2-b]azepine], testing at 10 µM in experiment [2] (1.5 h, *Human Platelet V1, at 10 μM) gave an inhibition of 77%. Further, the inhibition at 1 µM in experiment [1] (Rat Kidney Medullary V2, at 1 μM) stood at 17%.
